# Measurements as given in the supplement of paper PMC10307832.
# How the values were obtained:
# Assay in all cases: relative viability (nuclei count vs DMSO), 5 days (fraction); higher = more cells survive
# NCI-H322M = tested on: NCI-H322M
# In short: (§1)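 Each reported value is a median over duplicate plates. It expresses relative viability: treated-well nuclei count divided by vehicle-well nuclei count. Lung cancer cell lines in 1536-well plates were dosed by pin tool a day after seeding, alone with one drug or with a fixed anchor-drug dose plus five library-drug doses (not always all listed) in √10 steps, and nuclei were counted after 5 days.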
# 201T = tested on: 201T
# In short: as §1
# HCC-827 = tested on: HCC-827
# In short: as §1
# NCI-H650 = tested on: NCI-H650
# In short: as §1
# EPLC-272H = tested on: EPLC-272H
# In short: as §1
# NCI-H2126 = tested on: NCI-H2126
# In short: as §1
# NCI-H647 = tested on: NCI-H647
# In short: as §1
# NCI-H661 = tested on: NCI-H661
# In short: as §1
# COR-L 105 = tested on: COR-L 105
# In short: as §1
# LC-2-ad = tested on: LC-2-ad
# In short: as §1
# NCI-H23 = tested on: NCI-H23
# In short: as §1
# LCLC-97TM1 = tested on: LCLC-97TM1
# In short: as §1
# RERF-LC-KJ = tested on: RERF-LC-KJ
# In short: as §1
# NCI-H1915 = tested on: NCI-H1915
# In short: as §1
# H3255 = tested on: H3255
# In short: as §1
# NCI-H2405 = tested on: NCI-H2405
# In short: as §1
# NCI-H2087 = tested on: NCI-H2087
# In short: as §1
# NCI-H2347 = tested on: NCI-H2347
# In short: as §1
# NCI-H520 = tested on: NCI-H520
# In short: as §1
# PC-14 = tested on: PC-14
# In short: as §1
# ChaGo-K-1 = tested on: ChaGo-K-1
# In short: as §1
# NCI-H1666 = tested on: NCI-H1666
# In short: as §1
# HCC-78 = tested on: HCC-78
# In short: as §1
smiles,measurement,setting,value
CC1(C)CCC(c2ccc(Cl)cc2)=C(CN2CCN(c3ccc(C(=O)NS(=O)(=O)c4ccc(N[C@H](CCN5CCOCC5)CSc5ccccc5)c(S(=O)(=O)C(F)(F)F)c4)cc3)CC2)C1 [Navitoclax] + Nc1nc2[nH]cc(CCc3ccc(C(=O)N[C@@H](CCC(=O)O)C(=O)O)cc3)c2c(=O)[nH]1 [Pemetrexed] (partner 0.2 µM),relative viability,NCI-H322M; first compound 0.005 µM,0.661
same,relative viability,NCI-H322M; first compound 0.01581 µM,0.651
same,relative viability,NCI-H322M; first compound 0.05 µM,0.65
same,relative viability,NCI-H322M; first compound 0.1581 µM,0.651
same,relative viability,NCI-H322M; first compound 0.5 µM,0.649
same,relative viability,201T; first compound 0.005 µM,0.299
same,relative viability,201T; first compound 0.01581 µM,0.31
same,relative viability,201T; first compound 0.05 µM,0.34
same,relative viability,201T; first compound 0.1581 µM,0.321
same,relative viability,201T; first compound 0.5 µM,0.357
same,relative viability,HCC-827; first compound 0.005 µM,0.27
same,relative viability,HCC-827; first compound 0.01581 µM,0.261
same,relative viability,HCC-827; first compound 0.05 µM,0.252
same,relative viability,HCC-827; first compound 0.1581 µM,0.23
same,relative viability,HCC-827; first compound 0.5 µM,0.258
same,relative viability,NCI-H650; first compound 0.005 µM,0.9
same,relative viability,NCI-H650; first compound 0.01581 µM,1.05
same,relative viability,NCI-H650; first compound 0.05 µM,0.908
same,relative viability,NCI-H650; first compound 0.1581 µM,0.95
same,relative viability,NCI-H650; first compound 0.5 µM,0.999
same,relative viability,EPLC-272H; first compound 0.005 µM,0.312
same,relative viability,EPLC-272H; first compound 0.01581 µM,0.268
same,relative viability,EPLC-272H; first compound 0.05 µM,0.347
same,relative viability,EPLC-272H; first compound 0.1581 µM,0.354
same,relative viability,EPLC-272H; first compound 0.5 µM,0.343
same,relative viability,NCI-H2126; first compound 0.005 µM,0.667
same,relative viability,NCI-H2126; first compound 0.01581 µM,0.696
same,relative viability,NCI-H2126; first compound 0.05 µM,0.671
same,relative viability,NCI-H2126; first compound 0.1581 µM,0.602
same,relative viability,NCI-H2126; first compound 0.5 µM,0.624
same,relative viability,NCI-H647; first compound 0.005 µM,0.166
same,relative viability,NCI-H647; first compound 0.01581 µM,0.175
same,relative viability,NCI-H647; first compound 0.05 µM,0.163
same,relative viability,NCI-H647; first compound 0.1581 µM,0.14
same,relative viability,NCI-H647; first compound 0.5 µM,0.128
same,relative viability,NCI-H661; first compound 0.005 µM,0.936
same,relative viability,NCI-H661; first compound 0.01581 µM,0.958
same,relative viability,NCI-H661; first compound 0.05 µM,0.9
same,relative viability,NCI-H661; first compound 0.1581 µM,0.883
same,relative viability,NCI-H661; first compound 0.5 µM,0.876
same,relative viability,COR-L 105; first compound 0.005 µM,0.979
same,relative viability,COR-L 105; first compound 0.01581 µM,1.35
same,relative viability,COR-L 105; first compound 0.05 µM,0.921
same,relative viability,COR-L 105; first compound 0.1581 µM,1.13
same,relative viability,COR-L 105; first compound 0.5 µM,1.17
same,relative viability,LC-2-ad; first compound 0.005 µM,0.268
same,relative viability,LC-2-ad; first compound 0.01581 µM,0.263
same,relative viability,LC-2-ad; first compound 0.05 µM,0.284
same,relative viability,LC-2-ad; first compound 0.1581 µM,0.295
same,relative viability,LC-2-ad; first compound 0.5 µM,0.275
same,relative viability,NCI-H23; first compound 0.005 µM,0.594
same,relative viability,NCI-H23; first compound 0.01581 µM,0.665
same,relative viability,NCI-H23; first compound 0.05 µM,0.707
same,relative viability,NCI-H23; first compound 0.1581 µM,0.603
same,relative viability,NCI-H23; first compound 0.5 µM,0.645
same,relative viability,LCLC-97TM1; first compound 0.005 µM,0.182
same,relative viability,LCLC-97TM1; first compound 0.01581 µM,0.191
same,relative viability,LCLC-97TM1; first compound 0.05 µM,0.158
same,relative viability,LCLC-97TM1; first compound 0.1581 µM,0.156
same,relative viability,LCLC-97TM1; first compound 0.5 µM,0.204
same,relative viability,RERF-LC-KJ; first compound 0.005 µM,0.476
same,relative viability,RERF-LC-KJ; first compound 0.01581 µM,0.38
same,relative viability,RERF-LC-KJ; first compound 0.05 µM,0.45
same,relative viability,RERF-LC-KJ; first compound 0.1581 µM,0.484
same,relative viability,RERF-LC-KJ; first compound 0.5 µM,0.496
same,relative viability,NCI-H1915; first compound 0.005 µM,0.495
same,relative viability,NCI-H1915; first compound 0.01581 µM,0.504
same,relative viability,NCI-H1915; first compound 0.05 µM,0.571
same,relative viability,NCI-H1915; first compound 0.1581 µM,0.439
same,relative viability,NCI-H1915; first compound 0.5 µM,0.401
same,relative viability,H3255; first compound 0.005 µM,0.664
same,relative viability,H3255; first compound 0.01581 µM,0.648
same,relative viability,H3255; first compound 0.05 µM,0.571
same,relative viability,H3255; first compound 0.1581 µM,0.581
same,relative viability,H3255; first compound 0.5 µM,0.545
same,relative viability,NCI-H2405; first compound 0.005 µM,1.02
same,relative viability,NCI-H2405; first compound 0.01581 µM,1.07
same,relative viability,NCI-H2405; first compound 0.05 µM,1.11
same,relative viability,NCI-H2405; first compound 0.1581 µM,0.994
same,relative viability,NCI-H2405; first compound 0.5 µM,0.896
same,relative viability,NCI-H2087; first compound 0.005 µM,0.689
same,relative viability,NCI-H2087; first compound 0.01581 µM,0.697
same,relative viability,NCI-H2087; first compound 0.1581 µM,0.686
same,relative viability,NCI-H2087; first compound 0.5 µM,0.675
same,relative viability,NCI-H2347; first compound 0.005 µM,0.443
same,relative viability,NCI-H2347; first compound 0.01581 µM,0.439
same,relative viability,NCI-H2347; first compound 0.05 µM,0.411
same,relative viability,NCI-H2347; first compound 0.1581 µM,0.427
same,relative viability,NCI-H2347; first compound 0.5 µM,0.437
same,relative viability,NCI-H520; first compound 0.005 µM,0.713
same,relative viability,NCI-H520; first compound 0.01581 µM,0.743
same,relative viability,NCI-H520; first compound 0.05 µM,0.699
same,relative viability,NCI-H520; first compound 0.1581 µM,0.571
same,relative viability,NCI-H520; first compound 0.5 µM,0.681
same,relative viability,PC-14; first compound 0.005 µM,0.133
same,relative viability,PC-14; first compound 0.01581 µM,0.118
same,relative viability,PC-14; first compound 0.05 µM,0.136
same,relative viability,PC-14; first compound 0.1581 µM,0.108
same,relative viability,PC-14; first compound 0.5 µM,0.105
same,relative viability,ChaGo-K-1; first compound 0.005 µM,0.258
same,relative viability,ChaGo-K-1; first compound 0.01581 µM,0.26
same,relative viability,ChaGo-K-1; first compound 0.05 µM,0.25
same,relative viability,ChaGo-K-1; first compound 0.1581 µM,0.268
same,relative viability,ChaGo-K-1; first compound 0.5 µM,0.265
same,relative viability,NCI-H1666; first compound 0.005 µM,0.867
same,relative viability,NCI-H1666; first compound 0.01581 µM,0.964
same,relative viability,NCI-H1666; first compound 0.05 µM,0.836
same,relative viability,NCI-H1666; first compound 0.1581 µM,0.831
same,relative viability,NCI-H1666; first compound 0.5 µM,0.966
same,relative viability,HCC-78; first compound 0.005 µM,0.867
same,relative viability,HCC-78; first compound 0.01581 µM,0.878
same,relative viability,HCC-78; first compound 0.05 µM,0.921
same,relative viability,HCC-78; first compound 0.1581 µM,0.875
same,relative viability,HCC-78; first compound 0.5 µM,0.777
